Consider two compounds from patent publication US7022709B2, “Selective PDE 2 inhibitors as pharmaceuticals for improving perception” (priority 2000, dated 2006).

Each structure is given as a SMILES string. Where two headings read alike, the source gives them in different places.

The target of test [1] is T1, PDE2 (Homo sapiens, UniProt O00408). To be noted: cited from earlier work.
A further test concerns the target adenosine deaminase (Homo sapiens, UniProt P00813). As to conditions: read-out: IC50 adenosine deaminase; cited from earlier work.
Another test concerns PDE1. Put plainly: PDE inhibition, PDE1 (Ca-calmodulin-dependent). The class given is biochemical. To be noted: bovine PDE1. The source says:
(§1) The PDE 2 which can be stimulated by cGMP is isolated from bovine myocardium. The PDE 1 which can be stimulated by Ca^2+ calmodulin is isolated from porcine aorta, porcine brain or, preferably, from bovine aorta. The cGMP-specific PDE 5 is obtained from porcine small intestine, porcine aorta, human blood platelets and, preferably, from bovine aorta. Purification takes place by anion exchange chromatography on MonoQ^R Pharmacia essential by the method of Hoey, M; Houslay, M. D., Biochem. Pharmacol. 1990, 40, 193–202 and Lugman et al. Biochem. Pharmacol. 1986, 35, 1743–1751.
(§2) The enzymatic activity is determined in an assay mixture of 100 μl in 20 mM Tris/HCl buffer pH 7.5 which contains 5 mM MgCl2, 0.1 mg/ml bovine serum albumin and 800 Bq of either [^3H]-cAMP or [^3H]-cGMP. […] 100 μl of the reaction mixture are separated by HPLC, and the cleavage products are determined quantitatively on line using a flow scintillation counter. The substance concentration at which the reaction rate is reduced by 50% is measured. […]
(§3) The activity of the test substances on human recombinant PDE2, PDE3B, PDE4B and PDE7B is determined using the [^3H]cAMP scintillation proximity assay (SPA) kit (TRKQ7090) from Amersham International (Little Chalfont, England) and on PDE1 and PDE5 using the [^3H]cGMP scintillation proximity assay (SPA) kit (TRKQ7100) from Amersham International (Little Chalfont, England). […]

Test [2] concerns the target T2, PDE2 (Bos taurus, UniProt P14099).
T2 construct: from tissue; host or cells: bovine myocardium
T2 sequence (P14099 1-921): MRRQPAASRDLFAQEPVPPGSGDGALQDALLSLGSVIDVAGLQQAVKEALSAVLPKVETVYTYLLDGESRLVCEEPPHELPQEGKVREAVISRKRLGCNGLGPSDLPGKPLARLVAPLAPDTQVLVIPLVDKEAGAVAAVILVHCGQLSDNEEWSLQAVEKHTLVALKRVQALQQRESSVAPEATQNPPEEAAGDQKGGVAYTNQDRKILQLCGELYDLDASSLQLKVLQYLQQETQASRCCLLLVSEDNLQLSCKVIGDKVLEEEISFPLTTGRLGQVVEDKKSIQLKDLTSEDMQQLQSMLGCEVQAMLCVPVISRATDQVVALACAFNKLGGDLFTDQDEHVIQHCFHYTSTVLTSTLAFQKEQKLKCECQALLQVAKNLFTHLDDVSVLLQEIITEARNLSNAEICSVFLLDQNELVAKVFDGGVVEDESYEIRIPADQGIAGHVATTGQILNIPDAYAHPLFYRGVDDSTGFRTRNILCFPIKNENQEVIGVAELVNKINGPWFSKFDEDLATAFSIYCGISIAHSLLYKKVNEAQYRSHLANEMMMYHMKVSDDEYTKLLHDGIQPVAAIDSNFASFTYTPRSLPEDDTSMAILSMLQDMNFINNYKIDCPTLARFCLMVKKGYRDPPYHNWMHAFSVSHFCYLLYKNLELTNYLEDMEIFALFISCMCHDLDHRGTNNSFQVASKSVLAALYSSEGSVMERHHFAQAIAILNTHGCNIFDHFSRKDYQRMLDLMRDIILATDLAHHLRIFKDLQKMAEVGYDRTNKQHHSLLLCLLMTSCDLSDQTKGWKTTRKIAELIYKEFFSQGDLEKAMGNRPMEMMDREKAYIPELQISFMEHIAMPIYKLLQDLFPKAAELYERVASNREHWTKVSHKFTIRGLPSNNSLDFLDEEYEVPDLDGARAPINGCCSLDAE
Put plainly: PDE inhibition, cGMP-stimulated PDE2 from bovine myocardium. The class given is biochemical.
From the text: as §1
The enzymatic activity is determined in an assay mixture of 100 μl in 20 mM Tris/HCl buffer pH 7.5 which contains 5 mM MgCl2, 0.1 mg/ml bovine serum albumin and 800 Bq of either [^3H]-cAMP or [^3H]-cGMP. The final concentration of the respective nucleotides is 10^−6 mol/l. […] 100 μl of the reaction mixture are separated by HPLC, and the cleavage products are determined quantitatively on line using a flow scintillation counter. The substance concentration at which the reaction rate is reduced by 50% is measured. […]
Test substances are dissolved in 100% DMSO (10 mM), and this solution is diluted further with H2O (maximum final concentration in the assay: 10 μM). […] After the beads have settled out (about 15 min), the plate is measured in a beta counter.

The next test has as its target T3, PDE3B (Homo sapiens, UniProt Q13370).
T3 construct: made in house; host or cells: Sf9 cells, pFASTBAC baculovirus expression system (Gibco BRL)
Put plainly: PDE inhibition, human recombinant PDE3B, [3H]cAMP SPA. The class given is biochemical. The method, then:
(§4) Human recombinant PDE2 (Rosman et al. Gene 1997 191, 89–95), PDE3B (Miki et al. Genomics 1996 36, 476–485), PDE4B (Bolger et al. Mol. Cell. Biol. 1993 13, 6558–6571) and PDE7B (Hetman et al. Proc. Natl. Acad. Sci. U.S.A. 2000 97, 472–476) are expressed in Sf9 cells with the aid of the pFASTBAC baculovirus expression system (Gibco BRL).
(§5) The activity of the test substances on human recombinant PDE2, PDE3B, PDE4B and PDE7B is determined using the [^3H]cAMP scintillation proximity assay (SPA) kit (TRKQ7090) from Amersham International (Little Chalfont, England) and on PDE1 and PDE5 using the [^3H]cGMP scintillation proximity assay (SPA) kit (TRKQ7100) from Amersham International (Little Chalfont, England).
(§6) Test substances are dissolved in 100% DMSO (10 mM), and this solution is diluted further with H2O (maximum final concentration in the assay: 10 μM). The PDE2 is prestimulated by adding cGMP (final concentration in the assay: 10^−6 M). The enzyme is diluted in PDE buffer (20 mM TRIS/HCl, 5 mM MgCl2, 0.1 mg/ml albumin, pH 7.5). […] After the beads have settled out (about 15 min), the plate is measured in a beta counter.
(§7) Calmodulin 10^−7 M and CaCl2 1 μM are added to the reaction mixture for the PDE1 measurement. PDE5 is measured using the [^3H] cGMP SPA assay. PDE3B, PDE4B and PDE7B are measured using the [^3H] cAMP scintillation proximity assay.

For the next test, the target named is T4, PDE4B (Homo sapiens, UniProt Q07343).
T4 construct: made in house; host or cells: Sf9 cells, pFASTBAC baculovirus expression system (Gibco BRL)
Kind of test: PDE inhibition, human recombinant PDE4B, [3H]cAMP SPA. The class given is biochemical. The method, then: as §4, §5, §6, §7

Another test concerns the target T5, PDE5 (Homo sapiens, UniProt O76074).
T5 construct: from tissue; host or cells: human blood platelets (inferred; b27 also lists porcine small intestine, porcine aorta and, preferably, bovine aorta)
Kind of test: PDE inhibition, PDE5, [3H]cGMP SPA. The class given is biochemical.
From the text: as §1, §2, §3

The target of a further test is T6, PDE7B (Homo sapiens, UniProt Q9NP56).
T6 construct: made in house; host or cells: Sf9 cells, pFASTBAC baculovirus expression system (Gibco BRL)
Put plainly: PDE inhibition, human recombinant PDE7B, [3H]cAMP SPA. The class given is biochemical. As for the experimental part: as §4, §5, §6, §7

For test [3], the system named is primary mouse (E18) cortex cultures. Put plainly: Increasing the intracellular neuronal cGMP concentration in cell cultures. The class given is cell-based. To be noted: 100 nM Example 1, parallel incubation with 100 µM SNP, 20 min, 37° C., mouse cortical neurons. The method, then:
PDE 2 inhibitors increase the intracellular neronal cGMP concentration after prestimulation of guanylate cyclase with 10^−4 M sodium nitroprusside (SNP) in primary mouse brain cell cultures.
Mouse embryos were decapitated and the heads were transferred into dissection dishes. The scalp and roof of the skull were removed, and the exposed brains were transferred into another Petri dish. Using a binocular microscope and two forceps, the cerebrum (cortex) was isolated and cooled to 4° C. with ice. This dissection and the isolation of the cortical neurons were then carried out in accordance with a standard protocol with the papain dissociation system (Worthington Biochemical Corporation, Lakewood, N.J. 08701, USA) (Huettner et al. J. Neurosci. 1986, 6, 3044–3060.). […] The cells were then lysed with 200 μl lysis buffer (cGMP kit code RPN 226; from Amersham Pharmacia Biotech.) and cGMP concentration was measured as stated by the manufacturer. […]
Cells were treated with […] SNP (0) or with […] SNP and Example 1 (1×10^−8 M; 5×10^−8 M; 1×10^−7 M; 5×10^−7 M; 1×10^−6 M) for 20 min. The intracellular cGMP level was then measured.

For another test, the system named is rats. Kind of test: Object recognition test. The class given is in vivo, rat. To be noted: second run 24 hours later. As for the experimental part: The object recognition test is a memory test. It measures the ability of rats (and mice) to distinguish between familiar and unfamiliar objects.
The test was carried out as described (Blokland et al. NeuroReport 1998, 9, 4205–4208; Ennaceur, A., Delacour, J., Behav. Brain Res. 1988, 31, 47–59; Ennaceur, A., Meliani, K., Psychopharmacology 1992, 109, 321–330; Prickaerts, et al. Eur. J. Pharmacol. 1997, 337, 125–136).
In a first run, a rat is confronted in an otherwise empty observation arena of relatively large size by two identical objects. The rat will investigate, i.e. sniff round and touch, both objects extensively. In a second run, after an interval of 24 hours, the rat is put in the observation arena again. One of the familiar objects has now been replaced by a new, unfamiliar object. If a rat recognizes the familiar object, it will concentrate on investigating the unfamiliar object. However, after 24 hours, a rat has normally forgotten which object it investigated in the first run, and it will therefore inspect both objects to the same extent. Administration of a substance with a learning- and memory-improving effect will lead to a rat recognizing the object seen in the first run 24 hours previously as familiar. It will investigate the new, unfamiliar object in more detail than the familiar one. This memory ability is expressed in a discrimination index. A discrimination index of zero means that the rat investigates both objects, the old and the new, for equal times; that is to say it has not recognized the old object and reacts to both objects as if they were unfamiliar and new.
The effects of Example 1 on object recognition by rats 24 hours after the first run were investigated. The animals received Tylose alone, or Example 1 in dosages of 0.3, 1.0 or 3.0 mg/kg of body weight suspended in Tylose, orally, immediately following the first run with two identical objects. […] After a washout period of 2 or 3 days, a new dosage of Example 1 was tested in the same rats, until the memory capacity of all the rats had been measured twice with all the dosages. […]

In test [4] the target is T1, PDE2. Put plainly: PDE inhibition, human recombinant PDE2, [3H]cAMP SPA. The class given is biochemical. The arrangement: made in house; host or cells: Sf9 cells, pFASTBAC baculovirus expression system (Gibco BRL). The method, then: as §4, §5, §6

T1 sequence (O00408 whole entry): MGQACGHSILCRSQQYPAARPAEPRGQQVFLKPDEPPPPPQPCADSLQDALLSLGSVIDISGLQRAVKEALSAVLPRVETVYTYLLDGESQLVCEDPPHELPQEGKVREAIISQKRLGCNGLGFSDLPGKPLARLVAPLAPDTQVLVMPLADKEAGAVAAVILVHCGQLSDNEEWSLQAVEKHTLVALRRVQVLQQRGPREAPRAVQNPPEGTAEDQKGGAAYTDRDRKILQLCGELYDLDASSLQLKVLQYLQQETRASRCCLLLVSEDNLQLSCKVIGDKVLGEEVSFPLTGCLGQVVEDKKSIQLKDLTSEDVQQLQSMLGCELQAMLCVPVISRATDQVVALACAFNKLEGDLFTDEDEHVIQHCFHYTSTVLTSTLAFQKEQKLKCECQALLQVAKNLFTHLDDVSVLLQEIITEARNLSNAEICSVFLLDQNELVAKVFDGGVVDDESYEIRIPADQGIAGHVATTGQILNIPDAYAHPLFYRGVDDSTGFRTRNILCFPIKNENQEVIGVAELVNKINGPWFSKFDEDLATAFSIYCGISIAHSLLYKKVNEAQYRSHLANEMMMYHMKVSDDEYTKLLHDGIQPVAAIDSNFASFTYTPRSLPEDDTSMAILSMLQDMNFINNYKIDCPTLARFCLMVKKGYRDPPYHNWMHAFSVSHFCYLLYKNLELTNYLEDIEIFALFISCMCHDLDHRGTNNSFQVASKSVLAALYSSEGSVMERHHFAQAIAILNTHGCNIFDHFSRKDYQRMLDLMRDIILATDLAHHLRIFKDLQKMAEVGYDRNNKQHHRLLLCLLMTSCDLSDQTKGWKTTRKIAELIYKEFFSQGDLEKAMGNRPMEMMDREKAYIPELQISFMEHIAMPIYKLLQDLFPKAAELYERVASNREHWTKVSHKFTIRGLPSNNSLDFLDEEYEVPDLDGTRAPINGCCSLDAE
T3 sequence (Q13370 whole entry): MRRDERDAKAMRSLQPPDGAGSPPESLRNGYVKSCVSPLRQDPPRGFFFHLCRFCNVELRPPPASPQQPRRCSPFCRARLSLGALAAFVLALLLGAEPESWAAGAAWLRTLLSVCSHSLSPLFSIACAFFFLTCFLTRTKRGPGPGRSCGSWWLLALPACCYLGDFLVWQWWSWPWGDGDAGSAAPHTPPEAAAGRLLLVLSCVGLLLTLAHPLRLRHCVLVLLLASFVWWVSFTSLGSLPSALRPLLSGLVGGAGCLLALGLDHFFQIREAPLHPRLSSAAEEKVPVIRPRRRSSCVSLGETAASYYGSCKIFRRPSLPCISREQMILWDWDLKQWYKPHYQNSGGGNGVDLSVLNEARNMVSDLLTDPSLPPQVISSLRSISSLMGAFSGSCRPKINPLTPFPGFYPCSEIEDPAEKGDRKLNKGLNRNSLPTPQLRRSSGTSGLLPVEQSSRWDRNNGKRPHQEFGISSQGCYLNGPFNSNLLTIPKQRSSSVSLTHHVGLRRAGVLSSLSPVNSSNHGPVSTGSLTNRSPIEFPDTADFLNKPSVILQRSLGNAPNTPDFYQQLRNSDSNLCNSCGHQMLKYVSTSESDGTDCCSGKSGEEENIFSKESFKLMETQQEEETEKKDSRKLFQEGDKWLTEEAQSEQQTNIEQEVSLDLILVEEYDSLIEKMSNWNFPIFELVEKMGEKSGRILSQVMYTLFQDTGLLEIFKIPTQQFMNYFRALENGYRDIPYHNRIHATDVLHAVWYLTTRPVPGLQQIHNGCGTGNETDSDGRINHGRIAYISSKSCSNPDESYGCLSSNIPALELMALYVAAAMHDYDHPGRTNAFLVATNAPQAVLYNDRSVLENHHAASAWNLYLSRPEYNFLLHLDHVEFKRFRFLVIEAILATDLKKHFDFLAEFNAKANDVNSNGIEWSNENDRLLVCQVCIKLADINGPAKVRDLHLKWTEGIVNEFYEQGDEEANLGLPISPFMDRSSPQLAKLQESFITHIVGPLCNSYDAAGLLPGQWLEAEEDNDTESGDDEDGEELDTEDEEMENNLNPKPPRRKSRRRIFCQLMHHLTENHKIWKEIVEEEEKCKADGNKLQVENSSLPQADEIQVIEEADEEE
T4 sequence (Q07343 whole entry): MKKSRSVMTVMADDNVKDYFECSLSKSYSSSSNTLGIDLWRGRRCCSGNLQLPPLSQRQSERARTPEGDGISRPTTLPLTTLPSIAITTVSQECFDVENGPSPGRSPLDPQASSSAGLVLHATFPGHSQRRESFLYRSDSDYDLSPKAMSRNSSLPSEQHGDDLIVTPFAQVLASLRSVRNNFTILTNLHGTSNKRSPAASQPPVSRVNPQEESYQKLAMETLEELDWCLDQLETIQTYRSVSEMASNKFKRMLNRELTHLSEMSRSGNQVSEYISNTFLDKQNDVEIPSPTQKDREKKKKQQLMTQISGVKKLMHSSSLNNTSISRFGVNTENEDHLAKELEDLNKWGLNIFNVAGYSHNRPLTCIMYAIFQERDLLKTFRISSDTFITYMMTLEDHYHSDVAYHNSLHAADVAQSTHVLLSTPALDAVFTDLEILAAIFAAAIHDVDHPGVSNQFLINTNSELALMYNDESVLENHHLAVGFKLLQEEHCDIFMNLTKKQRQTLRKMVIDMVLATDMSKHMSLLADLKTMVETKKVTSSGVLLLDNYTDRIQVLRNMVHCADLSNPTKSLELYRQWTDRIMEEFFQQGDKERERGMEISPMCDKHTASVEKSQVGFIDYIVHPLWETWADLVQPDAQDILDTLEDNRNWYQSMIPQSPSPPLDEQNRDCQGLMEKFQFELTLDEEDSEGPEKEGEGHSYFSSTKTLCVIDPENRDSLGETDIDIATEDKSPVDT
T6 sequence (Q9NP56 whole entry): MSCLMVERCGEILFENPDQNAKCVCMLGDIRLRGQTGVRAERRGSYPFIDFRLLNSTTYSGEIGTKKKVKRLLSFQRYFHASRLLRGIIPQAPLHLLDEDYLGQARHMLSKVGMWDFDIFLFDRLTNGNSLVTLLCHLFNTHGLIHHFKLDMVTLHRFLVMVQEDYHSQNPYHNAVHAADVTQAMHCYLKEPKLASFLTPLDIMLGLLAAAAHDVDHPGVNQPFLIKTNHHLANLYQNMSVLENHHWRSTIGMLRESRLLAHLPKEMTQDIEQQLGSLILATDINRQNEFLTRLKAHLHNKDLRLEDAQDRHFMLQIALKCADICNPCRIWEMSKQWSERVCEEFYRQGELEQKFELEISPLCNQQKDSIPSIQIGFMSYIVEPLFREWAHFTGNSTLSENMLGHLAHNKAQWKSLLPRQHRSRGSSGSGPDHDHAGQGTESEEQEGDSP
Sequence of adenosine deaminase (P00813 whole entry, species assumed): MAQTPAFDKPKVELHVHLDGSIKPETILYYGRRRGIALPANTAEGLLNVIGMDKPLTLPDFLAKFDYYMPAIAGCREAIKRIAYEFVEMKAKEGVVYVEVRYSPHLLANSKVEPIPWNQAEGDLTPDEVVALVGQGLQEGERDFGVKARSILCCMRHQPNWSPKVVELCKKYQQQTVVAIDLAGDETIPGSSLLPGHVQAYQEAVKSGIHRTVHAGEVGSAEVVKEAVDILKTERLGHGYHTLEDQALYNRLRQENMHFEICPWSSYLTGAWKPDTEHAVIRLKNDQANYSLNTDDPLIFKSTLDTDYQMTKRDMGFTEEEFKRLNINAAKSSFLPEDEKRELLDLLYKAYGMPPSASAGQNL

A word on the IC50: it is the concentration needed to halve the response being measured. As for `CCCCCCC(C(C)O)n1cnc2c(N)ncnc21` (stereo not drawn) [EHNA, erythro-9-(2-hydroxy-3-nonyl)adenine], the IC50 is 1000 nM on PDE2 [1] and 3 nM on adenosine deaminase.
Consider `COc1ccc(Cc2nc3c(c(C)nn3C(CCCc3ccccc3)C(C)O)c(=O)[nH]2)cc1OC` (stereo not shown) [Example 1, 6-(3,4-dimethoxybenzyl)-1-[1-(1-hydroxyethyl)-4-phenylbutyl]-3-methyl-1,5-dihydropyrazolo[3,4-d]pyrimidin-4-one], for which the half-inhibitory concentration (IC50) in the test on PDE1 was 200 nM; against PDE2 [2] it was 7 nM; on PDE3B, > 4000 nM; at PDE4B it was 2900 nM; at PDE5, 300 nM; on PDE7B it was 1600 nM. For the same compound, at PDE2 [4], the IC50 turned out to be 6 nM. For the same compound, the “intracellular cGMP level” value in test [3] is “distinct increase”. Besides, the “memory capacity in the second run compared with control (Tylose alone)” value in the test on rats (0.3 mg/kg orally immediately after the first run) and with rats (1.0 mg/kg orally immediately after the first run) was “improved” each time. In the test with rats (0.3 and 1.0 mg/kg orally), the “discrimination index (d2)” value was “greater than zero”.
